The test system of one data set is C57BL6J JmcSlc mice. As to the kind of experiment: Inflammatory bowel disease animal model (DSS-induced colitis). It counts as in vivo. The protocol: Colitis was induced in 8-week-old male C57BL6J JmcSlc mice by feeding 3.5% dextran sodium sulfate (DSS) ad libitum for 9 days, and then replacing the same with normal drinking water. The vehicle and Compound 1 (0.5 mg/kg or 1 mg/kg) were orally administered to the experimental animal model prepared as described above daily from 2 days before DSS drinking until the end of drinking. In order to determine the degree of colonic inflammation, the degree of longitudinal contraction of the isolated colon was measured, and the histological scores were confirmed through H&E staining, which is shown in FIG. 6. Furthermore, total RNA was isolated from the isolated colon, cDNA was synthesized, and the expression levels of representative cytokines (IFNγ, IL-1β, IL-4, IL-6, IL-10, IL-12β, IL-17a, and TNFα) were measured and compared using qPCR, and the results are shown in FIG. 7.

For the next data set, the system named is mice. As to the kind of experiment: Acute pancreatitis animal model (cerulein-induced). It is filed as in vivo. To be noted: 5 µg/kg or 10 µg/kg tail vein; dose-dependent. The protocol:
Acute pancreatitis was induced by intraperitoneal administration of cerulein (50 µg/kg) dissolved in saline to 8-week-old male mice. Compound 1 was administered at a concentration of 5 µg/kg or 10 µg/kg into the tail vein 24 hours and 1 hour before cerulein administration, and cerulein was intraperitoneally administered six times at 1-hour intervals. 18 hours after the first cerulein administration, the mice were anesthetized, the serum was separated, and the amylase and lipase activities in the serum were measured, which are shown in FIG. 8.

The test system of another data set is C57BL6J mice. As to the kind of experiment: LPS-induced sepsis animal model, viability. It counts as in vivo. To be noted: 15 mg/kg i.p. 30 min before 50 mg/kg LPS. The protocol:
50 mg/kg of lipopolysaccharide (LPS) administration dose corresponds to the 'half lethal dose' that causes death of one half of the population within 24 hours. […] The animal experiment was conducted with six 8-week-old male C57BL6J mice per group. Each mouse was intraperitoneally administered 15 mg/kg of Compound 1 or pretreated with 100 µL of 10% DMSO (vehicle control). 30 minutes later, 50 mg/kg lipopolysaccharide was intraperitoneally injected into each mouse, and the viability was examined for 80 hours, and the results are shown in FIG. 9 and Table 2.

A further data set has as its system Mfn2^-/^- MEF cells. Put plainly: Mitochondrial oxygen consumption rate (Seahorse), Charcot-Marie-Tooth disease model. It counts as cell-based, mouse. To be noted: 1 µM, 24 hours. As for the experimental part:
To verify the functional loss due to mutation of MFN2 present in the outer mitochondrial membrane, which is the main cause of Charcot-Marie-Tooth disease, the mitochondrial oxygen consumption rate (OCR) was measured. In detail, Mfn2^+/^+ MEF cells (normal cells), which are mouse embryonic fibroblasts expressing Mfn2, and Mfn2^-/^- MEF cells not expressing Mfn2 were cultured at a density of 1 × 10^4 for 24 hours in a Seahorse XF24 culture dish using a DMEM medium supplemented with 10% FBS and penicillin/streptomycin. The cells were treated with DMSO as a vehicle and Compound 1 (1 µM) and cultured for another 24 hours. The mitochondrial oxygen consumption rate was measured using a […] (Agilent Technologies), and the results are shown in FIG. 13.

The next data set has as its system NCI-H295R cells. Put plainly: Cortisol production (ELISA), Cushing's syndrome cell model. It counts as cell-based, human. The following applies: 0.1 µM, 0.5 µM, and 1 µM; 0.5 mM 8-Br-cAMP; concentration-dependent. As for the experimental part: NCI-H295R cells (ATCC #CRL-2128), which are a human adrenocortical carcinoma cell line, were seeded at a density of 2.5 × 10^5 cells/well in a 24-well plate. The cells were cultured for 48 hours, and then they were pretreated with Compound 1 (0.1 µM, 0.5 µM, and 1 µM) for 12 hours. Furthermore, to increase cortisol synthesis, the cells were treated with 8-bromoadenosine […] monophosphate (8-Br-cAMP) at a concentration of 0.5 mM, and then re-treated with Compound 1, and allowed to react for 24 hours. After the reaction, the cell culture medium was collected, and the amount of cortisol produced in the cells was measured using an ELISA kit, and the results are shown in FIG. 14.
On the technique in general: In an ELISA, binding on a coated surface is turned into a signal by an enzyme label.

Another data set concerns normal cells. As to the kind of experiment: Growth inhibition (Cell Counting Kit-8), normal cells. It is filed as cell-based. The following applies: 24 hours, 10% FBS; concentration of up to less than 40 µM. As for the experimental part:
(§1) In order to verify the growth inhibitory effect of Compound 1 on various normal and cancer cell lines, 25 types of cell lines listed in Table 7 below were tested. In detail, each cell was seeded at a density of 2 × 10^4 cells/well in a 96-well plate and cultured for 24 hours, and then the medium was replaced with a medium comprising 0.5% (for cancer cells) or 10% (for normal cells) FBS, and Compound 1 was treated at various concentrations. 24 hours later, 10 µL of Cell Counting Kit-8 (Dojindo Molecular Technologies) was added, and 1 hour later, absorbance at 480 nm was measured using a microplate reader (TECAN SPARK), and the results are shown in FIGS. 15 to 21.
(In general: Formazan colour is commonly taken as a measure of viable cells.)

Another data set deals with bladder cancer cells. As to the kind of experiment: Growth inhibition (Cell Counting Kit-8), bladder cancer cells. It is filed as cell-based. To be noted: 24 hours, 0.5% FBS. The protocol: as §1
The test system of data set [1] is HCT-116 colorectal cancer cell line. Put plainly: Anticancer efficacy in HCT-116 colorectal cancer tumor model. It counts as in vivo, nude mice. The following applies: for reduced tumor growth (tumor volume) compared to vehicle: 21 times, day 24. As for the experimental part: A colorectal cancer model was established by subcutaneously transplanting HCT-116 colorectal cancer cell line into nude mice. The colorectal cancer model was divided into the following three groups: Group 1 was administered a vehicle as a control group, Group 2 was administered 0.5 mg/kg of Compound 1, and Group 3 was administered 1.0 mg/kg of Compound 1. The drug was orally administered once a day for a total of 21 times. To evaluate the therapeutic efficacy, the tumor size was measured before drug administration and on days 3, 7, 10, 14, 17, 21, and 24 after drug administration. The tumor size was calculated as follows: Tumor size (mm^3) = (A×B^2)/2 [formula] wherein A and B represent the tumor long axis and short axis, respectively.
In addition, the body weight was measured before drug administration and on days 7, 14, and 21 after drug administration.

Where [2] appears, read: qPCR, vs vehicle administration group.

The term viability denotes a read-out of living cells in per cent, often relative to untreated cells.

For the compound `CC(C(=O)NNc1ccc(F)cc1)n1cc(-c2cc(F)cc3c2-c2ccccc2C3(O)C(F)(F)F)cn1` (stereo not drawn) [Example 1, 2-(4-(2-fluoro-9-hydroxy-9-(trifluoromethyl)-9H-fluoren-4-yl)-1H-pyrazol-1-yl)-N'-(4-fluorophenyl)propanehydrazide], the “longitudinal contraction of colon” value with C57BL6J JmcSlc mice (0.5 mg/kg and 1 mg/kg oral daily, vs vehicle, effect increased with dose) is “alleviated”. The “colonic epithelial cell recovery (H&E staining)” value in the data set on C57BL6J JmcSlc mice (0.5 mg/kg oral daily, DSS) is reported as “slight”. Further, in the data set with C57BL6J JmcSlc mice (1 mg/kg oral daily, DSS), the “colonic epithelial cell recovery (H&E staining)” value is reported as “remarkable epithelial cell recovery” and the “tissue score (histological score)” value was “lowest score”. Moreover, in the data set on C57BL6J JmcSlc mice (setting [2]), the “mRNA expression of IFNγ (colon)” value is “significantly reduced”, the “mRNA expression of IL-4 (colon)” value is recorded as “increased”, the “mRNA expression of IL-6 (colon)” value is given as “significantly reduced” and the “mRNA expression of IL-12b (colon)” value was “significantly reduced”. In addition, in the data set on C57BL6J JmcSlc mice (setting [2]), the “mRNA expression of IL-17a (colon)” value is recorded as “significantly reduced” and the “mRNA expression of TNFα (colon)” value is “significantly reduced”. In addition, in the data set with mice, the serum amylase activity entry was “decreased” and the serum lipase activity result was “decreased”. For the same compound, the “Viability (%)” value with C57BL6J mice (Time 0 h) is given as 100%. Also, the “Viability (%)” value with C57BL6J mice (Time 20 h) was 100%. The “Viability (%)” value with C57BL6J mice (Time 60 h) stood at 50%. Moreover, in the data set on C57BL6J mice (Time 70 h), the “Viability (%)” value was 50%. The “Viability (%)” value with C57BL6J mice (Time 80 h) is listed as 50%. Moreover, in the data set with Mfn2^-/^- MEF cells, the “mitochondrial oxygen consumption rate (OCR)” value is recorded as “markedly restored to a level comparable to that of normal cells”. The cortisol production entry in the data set on NCI-H295R cells is recorded as “significantly inhibited”. Moreover, in the data set on normal cells, the viability is ≥ 70%. Further, the “concentration at which viability began to rapidly decrease to 70% or less” value in the data set on bladder cancer cells is given as “less than 1.2 µM”. Moreover, the body weight change result in data set [1] (0.5 mg/kg and 1.0 mg/kg oral, days 7, 14, 21) was “no significant body weight change”. The “reduced tumor growth (tumor volume) compared to vehicle” value in data set [1] (0.5 mg/kg oral once a day) turned out to be 41%. Besides, the “reduced tumor growth (tumor volume) compared to vehicle” value in data set [1] (1.0 mg/kg oral once a day) is 49%.

(Values after patent EP4596537A1, “NOVEL FLUORENE DERIVATIVE COMPOUND AND USE THEREOF” (JD Bioscience Inc., priority 2022, dated 2024).)
